Earlier results, collected in patent US20200016107A1, “COMPOSITION AND METHOD FOR THE TOPICAL TREATMENT OF SEVERE ACNE” (CENTRO INTTERNACIONAL DE COSMIATRÍA, S.A.P.I. DE C.V., priority 2017, published 2020).

System: sebaceous gland
Conditions: oral administration

CC1=C(/C=C/C(C)=C/C=C/C(C)=C\C(=O)O)C(C)(C)CCC1 [13-cis-retinoic acid]
effect on sebaceous gland secretion: almost completely suppresses this secretion
patients with marked improvement: ~100%
